Test results as given in patent publication US20250215101A1, “DR5 Agonist and PLK1 Inhibitor or CDK Inhibitor Combination Therapy” (Inhibrx Biosciences, Inc., priority 2022, published 2025).
pEC50: −log10 of the molar value.

Assays:
Assay in all cases: Cytotoxicity assay, colorectal cancer cell line panel, onvansertib +/- 1 nM INBRX-109
Type in all cases: cell-based
[1] = tested on: COLO320DM; settings: for pEC50: Homo sapiens, COLO 320DM
Description: (§1) Monolayer cultures of each cell line were harvested for compound screening as detailed below.
(§2) Also on day 2, test and control articles were added.
(§3) On day 4, viability measurements were taken. […] Data was graphed in GraphPad Prism 9.
(§4) The results for a panel of colorectal cancer cell lines are shown in Table 3 and FIGS. 4-6, and the results for a panel of pancreatic cell lines are shown in Table 4 and FIGS. 7 and 8.

[2] = tested on: DLD-1; settings: for Max Cytotox at 600 nM: DLD-1; for pEC50: Homo sapiens, DLD-1, DLD-1
Description: as §1, §2, §3, §4

[3] = tested on: HCT 116; settings: for Max Cytotox at 600 nM: HCT 116; for pEC50: Homo sapiens, HCT-116, HCT 116
Description: as §1, §2, §3, §4

[4] = tested on: HCT-15; settings: for Max Cytotox at 600 nM: HCT-15; for pEC50: Homo sapiens, HCT-15, HCT-15
Description: as §1, §2, §3, §4

[5] = tested on: HCT-8; settings: for Max Cytotox at 600 nM: HCT-8; for pEC50: Homo sapiens, HCT-8, HCT-8
Description: as §1, §2, §3, §4

[6] = tested on: HT-29; settings: for Max Cytotox at 600 nM: HT-29; for pEC50: Homo sapiens, HT-29, HT-29
Description: as §1, §2, §3, §4

[7] = tested on: HT-55; settings: for Max Cytotox at 600 nM: HT-55; for pEC50: Homo sapiens, HT55, HT-55
Description: as §1, §2, §3, §4

[8] = tested on: Hutu 80; settings: for pEC50: Homo sapiens, HuTu80, Hutu 80; for Max Cytotox at 600 nM: Hutu 80
Description: as §1, §2, §3, §4

[9] = tested on: LS 1034; settings: for pEC50: Homo sapiens, LS-1034, LS 1034; for Max Cytotox at 600 nM: LS 1034
Description: as §1, §2, §3, §4

[10] = tested on: LS 123; settings: for pEC50: Homo sapiens, LS-123, LS 123; for Max Cytotox at 600 nM: LS 123
Description: as §1, §2, §3, §4

[11] = tested on: LS 180; settings: for pEC50: Homo sapiens, LS180, LS 180; for Max Cytotox at 600 nM: LS 180
Description: as §1, §2, §3, §4

[12] = tested on: LS 513; settings: for pEC50: Homo sapiens, LS-513, LS 513; for Max Cytotox at 600 nM: LS 513
Description: as §1, §2, §3, §4

[13] = tested on: LS174T; settings: for pEC50: Homo sapiens
Description: as §1, §2, §3, §4

[14] = tested on: LoVo; settings: for pEC50: Homo sapiens
Description: as §1, §2, §3, §4

[15] = tested on: NCI-H716; settings: for pEC50: Homo sapiens, NCI-H716, NCI-H716; for Max Cytotox at 600 nM: NCI-H716
Description: as §1, §2, §3, §4

Q: With `CN1CCN(c2ccc(OC(F)(F)F)c(Nc3ncc4c(n3)-c3c(c(C(N)=O)nn3CCO)CC4)c2)CC1` [Onvansertib] as the compound, how does the pEC50 ([1]; onvansertib + 1 nM INBRX-109) read?
A: 6.55

Q: What about the pEC50 ([1]; onvansertib only) of the same compound?
A: 6.42

Q: And the “Max Cytotox at 600 nM” value ([1]; onvansertib + 1 nM INBRX-109)?
A: 79.6%

Q: And the “Max Cytotox at 600 nM” value ([1]; onvansertib only)?
A: 58.3%

Q: And the “Max Cytotox at 600 nM” value ([2]; onvansertib + 1 nM INBRX-109)?
A: 90.4%

Q: What about the “Max Cytotox at 600 nM” value ([2]; onvansertib only) of the same compound?
A: 45.8%

Q: What about the pEC50 ([2]; onvansertib + 1 nM INBRX-109) of the same compound?
A: 6.74

Q: What about the pEC50 ([2]; onvansertib only) of the same compound?
A: 6.55

Q: And the “Max Cytotox at 600 nM” value ([3]; onvansertib + 1 nM INBRX-109)?
A: 96.6%

Q: And the “Max Cytotox at 600 nM” value ([3]; onvansertib only)?
A: 76.0%

Q: And the pEC50 ([3]; onvansertib + 1 nM INBRX-109)?
A: 7.18

Q: And the pEC50 ([3]; onvansertib only)?
A: 6.95

Q: And the “Max Cytotox at 600 nM” value ([4]; onvansertib + 1 nM INBRX-109)?
A: 94.9%

Q: And the “Max Cytotox at 600 nM” value ([4]; onvansertib only)?
A: 61.4%

Q: What about the pEC50 ([4]; onvansertib + 1 nM INBRX-109) of the same compound?
A: 6.76

Q: And the pEC50 ([4]; onvansertib only)?
A: 6.57

Q: What about the “Max Cytotox at 600 nM” value ([5]; onvansertib + 1 nM INBRX-109) of the same compound?
A: 81.3%

Q: And the “Max Cytotox at 600 nM” value ([5]; onvansertib only)?
A: 52.7%

Q: What about the pEC50 ([5]; onvansertib + 1 nM INBRX-109) of the same compound?
A: 6.70

Q: And the pEC50 ([5]; onvansertib only)?
A: 6.69

Q: What about the “Max Cytotox at 600 nM” value ([6]; onvansertib + 1 nM INBRX-109) of the same compound?
A: 98.3%

Q: And the “Max Cytotox at 600 nM” value ([6]; onvansertib only)?
A: 45.6%

Q: What about the pEC50 ([6]; onvansertib + 1 nM INBRX-109) of the same compound?
A: 7.37

Q: What about the pEC50 ([6]; onvansertib only) of the same compound?
A: 7.21

Q: What about the “Max Cytotox at 600 nM” value ([7]; onvansertib + 1 nM INBRX-109) of the same compound?
A: 87.9%

Q: And the “Max Cytotox at 600 nM” value ([7]; onvansertib only)?
A: 41.8%

Q: And the pEC50 ([7]; onvansertib + 1 nM INBRX-109)?
A: 7.36

Q: What about the pEC50 ([7]; onvansertib only) of the same compound?
A: 7.29

Q: And the pEC50 ([8]; onvansertib + 1 nM INBRX-109)?
A: 6.87

Q: What about the pEC50 ([8]; onvansertib only) of the same compound?
A: 6.86

Q: And the “Max Cytotox at 600 nM” value ([8]; onvansertib + 1 nM INBRX-109)?
A: 86.5%

Q: What about the “Max Cytotox at 600 nM” value ([8]; onvansertib only) of the same compound?
A: 85.4%

Q: What about the pEC50 ([9]; onvansertib + 1 nM INBRX-109) of the same compound?
A: 6.70

Q: And the pEC50 ([9]; onvansertib only)?
A: 6.63

Q: And the “Max Cytotox at 600 nM” value ([9]; onvansertib + 1 nM INBRX-109)?
A: 85.8%

Q: What about the “Max Cytotox at 600 nM” value ([9]; onvansertib only) of the same compound?
A: 38.8%

Q: What about the pEC50 ([10]; onvansertib + 1 nM INBRX-109) of the same compound?
A: 6.77

Q: What about the pEC50 ([10]; onvansertib only) of the same compound?
A: 6.82

Q: What about the “Max Cytotox at 600 nM” value ([10]; onvansertib + 1 nM INBRX-109) of the same compound?
A: 24.1%

Q: And the “Max Cytotox at 600 nM” value ([10]; onvansertib only)?
A: 9.6%

Q: What about the pEC50 ([11]; onvansertib + 1 nM INBRX-109) of the same compound?
A: 6.71

Q: And the pEC50 ([11]; onvansertib only)?
A: 6.30

Q: What about the “Max Cytotox at 600 nM” value ([11]; onvansertib + 1 nM INBRX-109) of the same compound?
A: 86.2%

Q: What about the “Max Cytotox at 600 nM” value ([11]; onvansertib only) of the same compound?
A: 42.9%

Q: What about the pEC50 ([12]; onvansertib + 1 nM INBRX-109) of the same compound?
A: 7.00

Q: And the pEC50 ([12]; onvansertib only)?
A: 6.67

Q: What about the “Max Cytotox at 600 nM” value ([12]; onvansertib + 1 nM INBRX-109) of the same compound?
A: 93.7%

Q: What about the “Max Cytotox at 600 nM” value ([12]; onvansertib only) of the same compound?
A: 39.6%

Q: And the pEC50 ([13]; onvansertib + 1 nM INBRX-109)?
A: 6.96

Q: What about the pEC50 ([13]; onvansertib only) of the same compound?
A: 6.60

Q: What about the “Max Cytotox at 600 nM” value ([13]; onvansertib + 1 nM INBRX-109) of the same compound?
A: 94.1%

Q: And the “Max Cytotox at 600 nM” value ([13]; onvansertib only)?
A: 59.5%

Q: And the pEC50 ([14]; onvansertib + 1 nM INBRX-109)?
A: 7.38

Q: What about the pEC50 ([14]; onvansertib only) of the same compound?
A: 7.47

Q: What about the “Max Cytotox at 600 nM” value ([14]; onvansertib + 1 nM INBRX-109) of the same compound?
A: 90.8%

Q: And the “Max Cytotox at 600 nM” value ([14]; onvansertib only)?
A: 29.6%

Q: What about the pEC50 ([15]; onvansertib + 1 nM INBRX-109) of the same compound?
A: 7.08

Q: And the pEC50 ([15]; onvansertib only)?
A: 7.09

Q: What about the “Max Cytotox at 600 nM” value ([15]; onvansertib + 1 nM INBRX-109) of the same compound?
A: 51.2%

Q: What about the “Max Cytotox at 600 nM” value ([15]; onvansertib only) of the same compound?
A: 34.8%
